pEC50: −log10 of the molar value.
Species: Rattus norvegicus
Test: Growth hormone release was determined in rat pituitary cells at 1 uM; A - weakly active
Type: functional, cell-based
Details: Pituitary gland cell

Compound | Growth hormone release activity call at 1 uM
CC(C)(CC(=O)N[C@@H]1CCc2ccccc2N(Cc2ccc(-c3ccccc3-c3nn[nH]n3)cc2)C1=O)NCC(=O)O | Weak activity
C[C@H](CNC(C)(C)CC(=O)N[C@@H]1CCc2ccccc2N(Cc2ccc(-c3ccccc3-c3nn[nH]n3)cc2)C1=O)OCc1ccccc1 | Weak activity
C[C@H](O)CCNC(C)(C)CC(=O)N[C@@H]1CCc2ccccc2N(Cc2ccc(-c3ccccc3-c3nn[nH]n3)cc2)C1=O | Weak activity
CC(C)(CC(=O)N[C@@H]1CCc2ccccc2N(Cc2ccc(-c3ccccc3-c3nn[nH]n3)cc2)C1=O)NCCOCc1ccccc1 | Weak activity

Species: Rattus norvegicus
Test: Growth hormone release from rat pituitary cells
Type: functional
Details: Pituitary gland cell, read-out: ED50 (the source's name)

Compound | pEC50
CC(C)[C@@H](O)CNC(C)(C)CC(=O)N[C@@H]1CCc2ccccc2N(Cc2ccc(-c3ccccc3-c3nn[nH]n3)cc2)C1=O | 6.70
CCOC(=O)CNC(C)(C)CC(=O)N[C@@H]1CCc2ccccc2N(Cc2ccc(-c3ccccc3-c3nn[nH]n3)cc2)C1=O | 7.25
CC(=O)O[C@@H](C)CNC(C)(C)CC(=O)N[C@@H]1CCc2ccccc2N(Cc2ccc(-c3ccccc3-c3nn[nH]n3)cc2)C1=O | 6.70
CCCNC(C)(C)CC(=O)N[C@@H]1CCc2ccccc2N(Cc2ccc(-c3ccccc3-c3nn[nH]n3)cc2)C1=O | 7.30
C[C@@H](O)CCNC(C)(C)C(=O)N[C@@H]1CCc2ccccc2N(Cc2ccc(-c3ccccc3-c3nn[nH]n3)cc2)C1=O | 7.00
CC(C)(CC(=O)N[C@@H]1CCc2ccccc2N(Cc2ccc(-c3ccccc3-c3nn[nH]n3)cc2)C1=O)NCCO | 7.52
CC(C)(CC(=O)N[C@@H]1CCc2ccccc2N(Cc2ccc(-c3ccccc3-c3nn[nH]n3)cc2)C1=O)NC[C@H](O)[C@@H](O)CO | 7.40
CC(C)[C@H](O)CNC(C)(C)CC(=O)N[C@@H]1CCc2ccccc2N(Cc2ccc(-c3ccccc3-c3nn[nH]n3)cc2)C1=O | 6.00
C[C@H](O)CNC(C)(C)C(=O)N[C@@H]1CCc2ccccc2N(Cc2ccc(-c3ccccc3-c3nn[nH]n3)cc2)C1=O | 6.15
CC(C)(CC(=O)N[C@@H]1CCc2ccccc2N(Cc2ccc(-c3ccccc3-c3nn[nH]n3)cc2)C1=O)NC[C@H](O)CO | 8.00
C[C@@H](O)CNC(C)(C)C(=O)N[C@@H]1CCc2ccccc2N(Cc2ccc(-c3ccccc3-c3nn[nH]n3)cc2)C1=O | 6.52
CO[C@H](C)CNC(C)(C)CC(=O)N[C@@H]1CCc2ccccc2N(Cc2ccc(-c3ccccc3-c3nn[nH]n3)cc2)C1=O | 7.70
CC(C)(O)CNC(C)(C)CC(=O)N[C@@H]1CCc2ccccc2N(Cc2ccc(-c3ccccc3-c3nn[nH]n3)cc2)C1=O | 8.00
CC(C)(N)CC(=O)N[C@@H]1CCc2ccccc2N(Cc2ccc(-c3ccccc3-c3nn[nH]n3)cc2)C1=O | 7.22
CC(C)(N)C(=O)N[C@@H]1CCc2ccccc2N(Cc2ccc(-c3ccccc3-c3nn[nH]n3)cc2)C1=O | 7.52
C[C@@H](F)CNC(C)(C)CC(=O)N[C@@H]1CCc2ccccc2N(Cc2ccc(-c3ccccc3-c3nn[nH]n3)cc2)C1=O | 7.05
C[C@@H](O)CNC(C)(C)CC(=O)N[C@@H]1CCc2ccccc2N(Cc2ccc(-c3ccccc3-c3nn[nH]n3)cc2)C1=O [L-692585] | 8.52
C[C@H](O)CNC(C)(C)CC(=O)N[C@@H]1CCc2ccccc2N(Cc2ccc(-c3ccccc3-c3nn[nH]n3)cc2)C1=O | 8.15
C[C@@H](O)CCNC(C)(C)CC(=O)N[C@@H]1CCc2ccccc2N(Cc2ccc(-c3ccccc3-c3nn[nH]n3)cc2)C1=O | 8.00
CC(C)(CC(=O)N[C@@H]1CCc2ccccc2N(Cc2ccc(-c3ccccc3-c3nn[nH]n3)cc2)C1=O)NC[C@H](O)c1ccccc1 | 6.00
C[C@H](O)CCNC(C)(C)C(=O)N[C@@H]1CCc2ccccc2N(Cc2ccc(-c3ccccc3-c3nn[nH]n3)cc2)C1=O | 7.30
